In patent publication US9802960B2 (MILLENNIUM PHARMACEUTICALS, INC., priority 2014, dated 2017):

Each compound was assayed against Human VPS34 (Homo sapiens (Human), UniProt Q8NEB9) (assay: Human VPS34 enzyme assay (Adapta TR-FRET)). Settings: compound concentration 1.11 μM.
Assay type: biochemical

Sequence of Human VPS34 (Q8NEB9 whole entry): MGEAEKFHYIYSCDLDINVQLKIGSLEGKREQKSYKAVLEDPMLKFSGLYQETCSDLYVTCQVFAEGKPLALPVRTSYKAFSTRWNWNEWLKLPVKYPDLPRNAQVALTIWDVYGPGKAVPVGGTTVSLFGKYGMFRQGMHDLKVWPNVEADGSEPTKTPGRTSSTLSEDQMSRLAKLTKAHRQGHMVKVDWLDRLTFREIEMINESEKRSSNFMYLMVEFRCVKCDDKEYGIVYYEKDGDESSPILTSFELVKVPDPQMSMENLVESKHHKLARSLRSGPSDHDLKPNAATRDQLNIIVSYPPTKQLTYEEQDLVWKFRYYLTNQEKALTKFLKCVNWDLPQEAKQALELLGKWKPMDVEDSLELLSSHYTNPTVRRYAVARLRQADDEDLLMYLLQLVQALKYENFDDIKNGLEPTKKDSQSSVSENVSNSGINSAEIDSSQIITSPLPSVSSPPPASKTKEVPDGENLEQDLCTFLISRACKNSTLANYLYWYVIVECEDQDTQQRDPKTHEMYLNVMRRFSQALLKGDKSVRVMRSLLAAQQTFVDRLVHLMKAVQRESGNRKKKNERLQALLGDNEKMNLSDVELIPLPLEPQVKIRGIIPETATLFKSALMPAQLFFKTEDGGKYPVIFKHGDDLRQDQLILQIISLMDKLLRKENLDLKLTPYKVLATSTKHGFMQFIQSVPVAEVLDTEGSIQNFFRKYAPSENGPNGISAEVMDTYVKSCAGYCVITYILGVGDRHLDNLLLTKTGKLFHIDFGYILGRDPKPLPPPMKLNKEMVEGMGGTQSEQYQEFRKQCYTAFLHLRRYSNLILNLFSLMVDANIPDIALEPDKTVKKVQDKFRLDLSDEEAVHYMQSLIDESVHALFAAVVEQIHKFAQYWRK

| SMILES | Percent Inhibition |
| --- | --- |
| CC(=O)Nc1cc(-c2ccnc(Nc3ccnc(C4CC4)n3)c2)cn2nccc12 [Compound I-371, N-(6-{2-[(2-cyclopropylpyrimidin-4-yl)amino]pyridin-4-yl}pyrazolo[1,5-a]pyridin-4-yl)acetamide] | >99% |
| CC(=O)Nc1cc(-c2cnc(Cl)c(NS(=O)(=O)N(C)C)c2)ccn1 [Compound I-372, N-{6-chloro-5-[(dimethylsulfamoyl)amino]-3,4′-bipyridin-2′-yl}acetamide] | >99% |

Same assay, conditions: compound concentration 1.11 μM; read-out: Percent Inhibition

| inhibition at 1.11 µM | SMILES |
| --- | --- |
| 95% | CC(=O)Nc1cc(-c2cnc(Cl)c(NS(=O)(=O)c3ccc(C#N)cc3Cl)c2C)ccn1 [Compound I-362, N-(6-chloro-5-{[(2-chloro-4-cyanophenyl)sulfonyl]amino}-4-methyl-3,4′-bipyridin-2′-yl)acetamide] |
| > 99% | CCOC(=O)Nc1cc(-c2cnc(C)c(NS(=O)(=O)N(C)C)c2)ccn1 [Compound I-364, ethyl {5-[(dimethylsulfamoyl)amino]-6-methyl-3,4′-bipyridin-2′-yl}carbamate] |
| > 99% | CC(=O)Nc1cc(-c2cncc(S(=O)(=O)N(C)c3ccccc3)c2)ccn1 [Compound I-365, N-{5-[methyl(phenyl)sulfamoyl]-3,4′-bipyridin-2′-yl}acetamide] |
| > 99% | CC(=O)Nc1cc(-c2cnc(Cl)c(S(=O)(=O)NC34CC(C3)C4)c2)ccn1 [Compound I-366, N-[5-(bicyclo[1.1.1]pent-1-ylsulfamoyl)-6-chloro-3,4′-bipyridin-2′-yl]acetamide] |
| > 99% | CCN(CC)S(=O)(=O)c1cc(-c2ccnc(NC(C)=O)c2)cnc1C [Compound I-370, N-[5-(diethylsulfamoyl)-6-methyl-3,4′-bipyridin-2′-yl]acetamide] |
| > 99% | CCCCS(=O)(=O)Nc1cc(-c2ccnc(NC(C)=O)c2)cnc1C [Compound I-373, N-{5-[(butylsulfonyl)amino]-6-methyl-3,4′-bipyridin-2′-yl}acetamide] |
| > 99% | CC(=O)Nc1cc(-c2cnc(C)c(NS(=O)(=O)N3CCC(F)(F)CC3)c2)ccn1 [Compound I-374, N-(5-{[(4,4-difluoropiperidin-1-yl)sulfonyl]amino}-6-methyl-3,4′-bipyridin-2′-yl)acetamide] |
| 95% | CC(=O)Nc1cc(-c2cnc(C)c(NS(=O)(=O)c3cccc(F)c3F)c2)ccn1 [Compound I-377, N-(5-{[(2,3-difluorophenyl)sulfonyl]amino}-6-methyl-3,4′-bipyridin-2′-yl)acetamide] |
| > 99% | Cc1nccc(Nc2cc(-c3cnc(Cl)c(NS(=O)(=O)N(C)C)c3C)ccn2)n1 [Compound I-381, N′-{6-chloro-4-methyl-2′-[(2-methylpyrimidin-4-yl)amino]-3,4′-bipyridin-5-yl}-N,N-dimethylsulfuric diamide] |
| 96% | CC(=O)Nc1cc(-c2cnc(C)c(N3CCN(C)S3(=O)=O)c2)ccn1 [Compound I-386, N-[6-methyl-5-(5-methyl-1,1-dioxido-1,2,5-thiadiazolidin-2-yl)-3,4′-bipyridin-2′-yl]acetamide] |
| > 99% | CC(=O)Nc1cc(-c2cnc(C)c(N3CCCNS3(=O)=O)c2)ccn1 [Compound I-387, N-[5-(1,1-dioxido-1,2,6-thiadiazinan-2-yl)-6-methyl-3,4′-bipyridin-2′-yl]acetamide] |
| > 99% | CC(=O)Nc1cc(-c2cncc(NS(=O)(=O)c3ccc(F)cc3F)c2Cl)ccn1 [Compound I-394, N-(4-chloro-5-{[(2,4-difluorophenyl)sulfonyl]amino}-3,4′-bipyridin-2′-yl)acetamide] |
| > 99% | CC(=O)Nc1cc(-c2cnc(C)c(S(N)(=O)=O)c2)ccn1 [Compound I-395, N-(6-methyl-5-sulfamoyl-3,4′-bipyridin-2′-yl)acetamide] |
| 94% | CC(=O)Nc1cc(-c2cncc(S(=O)(=O)NC3CCC3)c2)ccn1 [Compound I-396, N-[5-(cyclobutylsulfamoyl)-3,4′-bipyridin-2′-yl]acetamide] |
| 100% | CC(=O)Nc1cc(-c2cnc(Cl)c(NS(=O)(=O)c3ccc(Cl)cc3F)c2C)ccn1 [Compound I-399, N-(6-chloro-5-{[(4-chloro-2-fluorophenyl)sulfonyl]amino}-4-methyl-3,4′-bipyridin-2′-yl)acetamide] |
| > 99% | CC(=O)Nc1cc(-c2cnc(Cl)c(NS(=O)(=O)c3cc(Cl)ccc3Cl)c2C)ccn1 [Compound I-401, N-(6-chloro-5-{[(2,5-dichlorophenyl)sulfonyl]amino}-4-methyl-3,4′-bipyridin-2′-yl)acetamide] |

Continued, compound first:

| SMILES | inhibition at 1.11 µM |
| --- | --- |
| Cc1nccc(Nc2cc(-c3cnc(C)c(OCc4ccccc4)c3)ccn2)n1 [Compound I-363, 5-(benzyloxy)-6-methyl-N-(2-methylpyrimidin-4-yl)-3,4′-bipyridin-2′-amine] | 83% |
| CCNC(=O)Nc1cc(-c2ccnc(Nc3ccnc(C)n3)c2)cnc1C [Compound I-367, 1-ethyl-3-{6-methyl-2′-[(2-methylpyrimidin-4-yl)amino]-3,4′-bipyridin-5-yl}urea] | 76% |
| Cc1ncc(-c2ccnc(Nc3ccnc(C4CC4)n3)c2)cc1NC(=O)N1CC(F)(F)C1 [Compound I-368, N-(2′-((2-cyclopropylpyrimidin-4-yl)amino)-6-methyl-[3,4′-bipyridin]-5-yl)-3,3-difluoroazetidine-1-carboxamide] | 96% |
| Cc1c(-c2ccnc(Nc3ccnc(C4CC4)n3)c2)cnc(Cl)c1C(=O)O [Compound I-369, 6-chloro-2′-((2-cyclopropylpyrimidin-4-yl)amino)-4-methyl-[3,4′-bipyridine]-5-carboxylic acid] | 97% |
| COc1nc(C)nc(Nc2cc(-c3cnc(C)c(NS(=O)(=O)c4ccc(F)cc4F)c3)ccn2)n1 [Compound I-375, 2,4-difluoro-N-{2′-[(4-methoxy-6-methyl-1,3,5-triazin-2-yl)amino]-6-methyl-3,4′-bipyridin-5-yl}benzenesulfonamide] | 99% |
| CC(=O)Nc1cc(-c2cnc3c(c2)S(=O)(=O)N(C24CC(C2)C4)CCO3)ccn1 [Compound I-376, N-{4-[2-(bicyclo[1.1.1]pent-1-yl)-1,1-dioxido-3,4-dihydro-2H-pyrido[2,3-b][1,4,5]oxathiazepin-8-yl]pyridin-2-yl}acetamide] | 94% |
| Cc1nccc(Nc2cc(-c3cnc4c(c3)C(=O)N(Cc3ccccc3)CC4)ccn2)n1 [Compound I-378, 6-benzyl-3-[2-[(2-methylpyrimidin-4-yl)amino]-4-pyridyl]-7,8-dihydro-1,6-naphthyridin-5-one] | 66% |
| Cc1nccc(Nc2cc(-c3cnc(C)c(OCCN(C)C)c3)ccn2)n1 [Compound I-379, 5-[2-(dimethylamino)ethoxy]-6-methyl-N-(2-methylpyrimidin-4-yl)-3,4′-bipyridin-2′-amine] | 47% |
| CC(=O)Nc1cc(-c2cnc(C#N)c(N3CCCCC3C)c2)ccn1 (centres unmarked) [Compound I-380, N-[6-cyano-5-(2-methylpiperidin-1-yl)-3,4′-bipyridin-2′-yl]acetamide] | 95% |
| Cc1nc(Nc2cc(-c3cnc(C)c(NS(=O)(=O)c4ccc(F)cc4F)c3)ccn2)nc(C2CC2)n1 [Compound I-382, N-{2′-[(4-cyclopropyl-6-methyl-1,3,5-triazin-2-yl)amino]-6-methyl-3,4′-bipyridin-5-yl}-2,4-difluorobenzene sulfonamide] | > 99% |
| CCOC(=O)Nc1cc(-c2cnc(Cl)c(NS(=O)(=O)c3ccc(F)cc3F)c2C)ccn1 [Compound I-383, ethyl (6-chloro-5-{[(2,4-difluorophenyl)sulfonyl]amino}-4-methyl-3,4′-bipyridin-2′-yl)carbamate] | 91% |
| CC(=O)Nc1cc(-c2cncc(N(CCO)S(=O)(=O)c3ccc(F)cc3F)c2)ccn1 [Compound I-384, N-(5-{[(2,4-difluorophenyl)sulfonyl](2-hydroxyethyl)amino}-3,4′-bipyridin-2′-yl)acetamide] | 73% |
| Cc1ncc(-c2ccnc(NC(=O)C3CC3)c2)cc1C(=O)N(C)C12CC(C1)C2 [Compound I-388, N-(bicyclo[1.1.1]pent-1-yl)-2′-[(cyclopropylcarbonyl)amino]-N,6-dimethyl-3,4′-bipyridine-5-carboxamide] | 98% |
| CCOC(=O)Nc1cc(-c2cnc(C)c(NS(=O)(=O)c3ccc(F)cc3F)c2)ccn1 [Compound I-389, ethyl (5-{[(2,4-difluorophenyl)sulfonyl]amino}-6-methyl-3,4′-bipyridin-2′-yl)carbamate] | 95% |
| Cc1ccc(Oc2cc(-c3ccnc(Nc4ccnc(C)n4)c3)cnc2C)nc1 [Compound I-390, 6-methyl-5-[(5-methylpyridin-2-yl)oxy]-N-(2-methylpyrimidin-4-yl)-3,4′-bipyridin-2′-amine] | 98% |
| CC(=O)Nc1cc(-c2cncc(S(=O)(=O)N3CC(F)(F)C3)c2)ccn1 [Compound I-391, N-{5-[(3,3-difluoroazetidin-1-yl)sulfonyl]-3,4′-bipyridin-2′-yl}acetamide] | > 99% |
| CC(=O)Nc1cc(-c2cnc(C)c(Nc3nc4ccccc4o3)c2)ccn1 [Compound I-392, N-[5-(1,3-benzoxazol-2-ylamino)-6-methyl-3,4′-bipyridin-2′-yl]acetamide] | 82% |
| CC(=O)Nc1cc(-c2cncc(N(C)C(=O)c3ccc(F)cc3F)c2)ccn1 [Compound I-397, N-(2′-acetamido-3,4′-bipyridin-5-yl)-2,4-difluoro-N-methylbenzamide] | 100% |
| CC(=O)Nc1cc(-c2cnc(C)c(N(C)C(=O)c3ccc(F)cc3F)c2)ccn1 [Compound I-398, N-(2′-acetamido-6-methyl-3,4′-bipyridin-5-yl)-2,4-difluoro-N-methylbenzamide] | 93% |
| Cc1nccc(Nc2cc(-c3cnc(Cl)c(C(=O)O)c3C)ccn2)n1 [Compound I-402, 6-chloro-4-methyl-2′-[(2-methylpyrimidin-4-yl)amino]-3,4′-bipyridine-5-carboxylic acid] | 93% |
